In patent US11434468B2, “Lactic acid bacteria and its applications” (Bened Biomedical Co., Ltd., priority 2017, dated 2022):

What was measured:
[1] = system: SH-SY5Y neuroblastoma cells; experiment: Cell viability (MTT) upon dexamethasone-induced neurotoxicity; assay type: cell-based, human; conditions: dexamethasone 25 μM, MTT 48 h after treatment, unfermented MRS control = 100% viability, FIG. 11
Procedure: Neuroblastoma cell line, SH-SY5Y cells were purchased from Korea Cell Line Bank (KCLB; Seoul, Korea). Cells were maintained in high glucose Dulbecco's Modified Eagle Medium (DMEM; Difco, Detroit, Mich., USA) supplemented with 10% heat-inactivated fetal bovine serum (FBS; Gibco Life Technologies Inc, Grand Island, N.Y., USA), 100 U/mL penicillin/streptomycin (Gibco Life Technologies Inc, Grand Island, N.Y., USA). Cultures were seeded into flasks containing supplemented medium and maintained at 37° C. in a humidified atmosphere of 5% CO2 and 95% air.
The SH-SY5Y cells were seeded into 96-well culture plates at a seeding density 1×10^5 cells per well. All cells in this study were maintained in 10% serum medium until the dexamethasone (Dex; Sigma-Aldrich, Steinheim, Germany) treatment. Cells were incubated for 24 h to allow attachment to the culture plate before treatment. […] The 3-(4, 5 dimethylthiazol-2-yl)-2,5-diphenyl-tetrazolium bromide (MTT; Sigma-Aldrich, Steinheim, Germany) reduction was analyzed 48 h after treatment.
Cell viability was measured by quantitative colorimetric assay with MTT, as described previously by Denizot and Lang (J Immunol Methods. 1986 May 22; 89(2):271-7.). […] Colorimetric determination of MTT reduction was measured at 570 nm using microplate reader (Thermo Scientific, Waltham, Mass., US). […]

[2] = system: rats subjected to chronic mild stress; experiment: Open field test after 4 weeks of chronic mild stress protocol; assay type: in vivo, rat; conditions: 4 weeks chronic mild stress, daily oral gavage, 5 min open field test
Procedure: Open field test was performed using an opaque rectangular box with the dimension of 32 cm high, 38 cm width and 52 cm long was placed in the center of the experiment room supplied with bright lighting. A video camera was set up above the rectangular box to capture the behavior of the animals.
Each animal was gently transferred from its cage into the OFT and allowed to freely explore inside the box. […] The box was cleaned with 70% ethanol during the interval of each test throughout the assessment. The duration of exploratory and immobility was expressed as mean±standard of mean from six replicates (n=6) per group.
The open field test is broadly used to assess exploratory behavior and validated for use in the measurement of anxiety-related behaviors. The procedure consists of subjecting the rat, to an unknown environment from which escape is prevented by surrounding walls. […] Increased exploratory behaviours in rats indicate less anxiety states, whereas immobility indicate anxiety behaviour in rats.

[3] = system: rats subjected to chronic mild stress; experiment: Forced swim test after 4 weeks of chronic mild stress protocol; assay type: in vivo, rat; conditions: 4 weeks chronic mild stress, daily oral gavage, 5 min forced swim test, comparison between groups, P<0.05, FIG. 3
Procedure: Forced swim test (FST) was performed in a black opaque swim cylinder with a depth of 68 cm and diameter of 40 cm. The cylinder was filled up with water to the depth of 30 cm, leaving some space on top to prevent the escape of rat. A video camera was set up above the swim cylinder to capture and record the animals' behavior during the test.
Each animal was gently placed into the water in the swim cylinder and was given 5 minutes to swim freely in the swim cylinder. The behavior of the animals were observed and recorded throughout the test. All rats were dried thoroughly with clean towel after the FST before returning them to their respective cage throughout the assessment. The duration of immobility of the rats were timed and then expressed as mean±standard of mean from six replicates (n=6) per group.
Forced swim test is one of the most commonly used assays for the study of depressive-like behavior in rodents. […] In forced swim test, a swimming cylinder filled with 30 cm depth of water. Depression assessment of rats was performed by scoring predominant behavior in each 5-s period of the 300-s test.

[4] = system: rats subjected to chronic mild stress; experiment: Morris water maze after chronic mild stress; assay type: in vivo, rat; conditions: 4 weeks chronic mild stress, daily oral gavage, comparison between groups, P<0.05, FIG. 6(a)
Procedure: The diameter of the MWM used was 210 cm, where the height of the pool was 51 cm with non-reflective interior surfaces. The maze was placed in a room with a video camera set up on top of the maze to capture and record the animal's behavior. The water maze was filled up with water of temperature ranging within 19-22° C. to avoid the rats from getting temperature shock (hypothermia or hyperthermia). Then, a colorless and transparent circular goal or platform (designated as escape platform) with the diameter of 10-12 cm was submerged 1-2 cm below the water surface and ensured with stability to avoid tipping of animal when the rats climb on it.
The start locations of the MWM was designated at East, West and South East, while the escape platform is submerge at North East. A consecutive four daily trials were performed using these three start locations. Briefly, the animals were gently placed on the first start locations and allowed to swim freely to search for the escape platform. A maximum of two minutes was given for each animal to perform the search for the escape platform. All rats were dried thoroughly with clean towel after the Morris test before returning them to their respective cage. Time taken by each animal to locate the escape, escape latency (seconds) is expressed as mean±standard of mean from six replicates (n=6) per group. […]

[5] = system: rats subjected to chronic mild stress; experiment: Elevated plus maze after 4 weeks of chronic mild stress protocol; assay type: in vivo, rat; conditions: 4 weeks chronic mild stress, daily oral gavage (PS150 1×10^9 cfu; protein 300 mg/kg; alprazolam), 5 min, comparison between groups
Description: The elevated plus maze (EPM) consists of four arms, two open arms without walls and two enclosed walls of 40 cm high, 50 cm long and 15 cm wide. Each arm of the maze is attached with firm metallic legs with 70 cm high. The EPM was placed in a room with bright lighting, close to the center of the room. The levels of illumination of both open and closed arms were maintained similar. A video camera was set up above the elevated plus maze to capture and record the animal's behavior.
Animal was taken out from its cage and placed at the middle (ie. the junction of the open and closed arm) of EPM, facing away from the maze towards the wall. Each animal was given 5 minutes to explore freely on the EPM. Throughout the assessment, the EPM was cleaned and dried with 70% ethanol before accessing the next animal. The number of open arm entries and time spent in open arms were observed, timed and recorded. The number of entries to open arms and the duration spent on open arms were recorded and expressed as mean±standard of means from six replicates (n=6) per group.
Analyses on rat behavior were carried out after 4 weeks of chronic mild stress protocol. […] Rats were placed at the junction of the four arms of the maze, facing an open arm, and entries/duration in each arm was recorded for 5 min. […]

Row | Compound | Neuroprotective effect (cell viability) against dexamethasone [1] | Duration of immobility ([2]; between naïve control, positive control, PS150 and protein fraction groups, FIG. 2) | Duration of exploratory activity ([2]; comparison between groups, P<0.05, FIG. 2) | Time spent immobile [3] | Escape latency [4] | Number of entries into the open arms ([5]; P<0.05, FIG. 1(a)) | Ratio of time spent on the closed arms to the time spent on the open arms ([5]; P<0.05, FIG. 1(b))
1 | fraction A: HPLC-purified fraction of the PS150 protein fraction, approximately 55 kDa, identified as elongation factor Tu (SEQ ID NO:4) | most prevalent neuroprotective effect |  |  |  |  |  | 
2 | Cc1nnc2n1-c1ccc(Cl)cc1C(c1ccccc1)=NC2 [alprazolam] |  | insignificantly different | insignificantly different | insignificantly different | Insignificant difference | insignificant differences | insignificant differences
